Reference: ChEMBL document CHEMBL1124898, “Novel agents effective against solid tumors: the diarylsulfonylureas. Synthesis, activities, and analysis of quantitative structure-activity relationships” (J Med Chem, 1990)
Converted amounts (≈) assume the structure as drawn.

Legend:
CCRF-CEM = assay: Concentration required to inhibit growth of CCRF-CEM cells in culture for 72 hr to 50% of control growth; assay type: functional, cell-based; conditions: Homo sapiens
[1] = Antitumor activity in vivo against the 6C3HED lymphosarcoma, dosed for 8 days at 300 mg/kg; conditions: Mus musculus, 192 h

## Cc1ccc(S(=O)(=O)NC(=O)Nc2c(F)cc(F)cc2F)cc1
CCRF-CEM
  IC50: > 20 µg/mL
[1]
  inhibition in vivo at 300 mg/kg: 27%

## COc1ccc(NC(=O)NS(=O)(=O)c2ccc(C)cc2)cc1OC
CCRF-CEM
  IC50: > 20 µg/mL
[1]
  inhibition in vivo at 300 mg/kg: 12%

## COc1ccc(NC(=O)NS(=O)(=O)c2ccc(C)cc2)cc1Cl
CCRF-CEM
  IC50: > 20 µg/mL
[1]
  inhibition in vivo at 300 mg/kg: 0%

## O=C(Nc1ccc(C(F)(F)F)cc1)NS(=O)(=O)c1ccc2c(c1)CCC2
CCRF-CEM
  IC50: 12 µg/mL (≈ 31.2 µM)
[1]
  inhibition in vivo at 300 mg/kg: 71%

## O=C(Nc1ccc(Cl)cc1)NS(=O)(=O)c1ccc(Oc2ccccc2)cc1
CCRF-CEM
  IC50: 19.7 µg/mL (≈ 48.9 µM)
[1]
  inhibition in vivo at 300 mg/kg: 32%

## CCCCCCCCc1ccc(S(=O)(=O)NC(=O)Nc2ccc(Cl)cc2)cc1
CCRF-CEM
  IC50: 9 µg/mL (≈ 21.3 µM)
[1]
  inhibition in vivo at 300 mg/kg: 9%

## Cc1ccc(S(=O)(=O)NC(=O)Nc2ccc(O)cc2)cc1
CCRF-CEM
  IC50: > 20 µg/mL
[1]
  inhibition in vivo at 300 mg/kg: 10%

## Cc1ccc(S(=O)(=O)NC(=O)Nc2ccc(-c3ccccc3)cc2)cc1
CCRF-CEM
  IC50: > 20 µg/mL
[1]
  inhibition in vivo at 300 mg/kg: 0%

## CCOC(=O)c1ccc(NC(=O)NS(=O)(=O)c2ccc(C)cc2)cc1
CCRF-CEM
  IC50: > 20 µg/mL
[1]
  inhibition in vivo at 300 mg/kg: 12%

## Cc1ccc(S(=O)(=O)NC(=O)Nc2ccc(Cl)c(Cl)c2)cc1
CCRF-CEM
  IC50: 5.8 µg/mL (≈ 16.1 µM)
[1]
  inhibition in vivo at 300 mg/kg: 100%

## O=C(Nc1ccc(Cl)cc1)NS(=O)(=O)c1ccc2c(c1)OCCO2
CCRF-CEM
  IC50: 13.5 µg/mL (≈ 36.6 µM)
[1]
  inhibition in vivo at 300 mg/kg: 49%

## O=C(Nc1ccc2c(c1)OCO2)NS(=O)(=O)c1ccc(Cl)cc1
CCRF-CEM
  IC50: > 20 µg/mL
[1]
  inhibition in vivo at 300 mg/kg: 28%

## CCCc1ccc(S(=O)(=O)NC(=O)Nc2ccc(Cl)cc2)cc1
CCRF-CEM
  IC50: 13.8 µg/mL (≈ 39.1 µM)
[1]
  inhibition in vivo at 300 mg/kg: 79%

## Cc1ccc(S(=O)(=O)NC(=O)Nc2ccc(Cl)c(C(F)(F)F)c2)cc1
CCRF-CEM
  IC50: 18.6 µg/mL (≈ 47.4 µM)
[1]
  inhibition in vivo at 300 mg/kg: 18%

## O=C(Nc1ccc(Cl)cc1)NS(=O)(=O)c1ccc2c(c1)CCO2
CCRF-CEM
  IC50: 16.1 µg/mL (≈ 45.6 µM)
[1]
  inhibition in vivo at 300 mg/kg: 94%

## Cc1ccc(S(=O)(=O)NC(=O)Nc2ccc(OC(F)(F)F)cc2)cc1
CCRF-CEM
  IC50: 18.4 µg/mL (≈ 49.2 µM)
[1]
  inhibition in vivo at 300 mg/kg: 17%

## Cc1ccc(S(=O)(=O)NC(=O)Nc2ncccn2)cc1
CCRF-CEM
  IC50: > 20 µg/mL
[1]
  inhibition in vivo at 300 mg/kg: 0%

## Cc1ccc(S(=O)(=O)NC(=O)Nc2ccc(Cl)cc2)cc1C
CCRF-CEM
  IC50: 13.6 µg/mL (≈ 40.1 µM)
[1]
  inhibition in vivo at 300 mg/kg: 100%

## CCc1ccc(S(=O)(=O)NC(=O)Nc2ccc(Cl)cc2)cc1CC
CCRF-CEM
  IC50: 12.4 µg/mL (≈ 33.8 µM)
[1]
  inhibition in vivo at 300 mg/kg: 46%

## Cc1ccc(S(=O)(=O)N(C)C(=O)Nc2ccc(Cl)cc2)cc1
CCRF-CEM
  IC50: > 20 µg/mL
[1]
  inhibition in vivo at 300 mg/kg: 17%

## Cc1ccc(S(=O)(=O)NC(=O)Nc2ccc(Oc3ccccc3)cc2)cc1
CCRF-CEM
  IC50: > 20 µg/mL
[1]
  inhibition in vivo at 300 mg/kg: 0%

## Cc1ccc(S(=O)(=O)NC(=O)Nc2ccncc2)cc1
CCRF-CEM
  IC50: > 20 µg/mL
[1]
  inhibition in vivo at 300 mg/kg: 24%

## COc1ccc(NC(=O)NS(=O)(=O)c2ccc(C)cc2)cc1
CCRF-CEM
  IC50: > 20 µg/mL
[1]
  inhibition in vivo at 300 mg/kg: 6%

## CCc1cccc(S(=O)(=O)NC(=O)Nc2ccc(Cl)cc2)c1
CCRF-CEM
  IC50: 10.4 µg/mL (≈ 30.7 µM)
[1]
  inhibition in vivo at 300 mg/kg: 95%

## Cc1ccc(S(=O)(=O)NC(=O)Nc2nc(C)cc(C)n2)cc1
CCRF-CEM
  IC50: > 20 µg/mL
[1]
  inhibition in vivo at 300 mg/kg: 0%

## Cc1ccc(NC(=O)NS(=O)(=O)c2ccc(C)cc2)cc1
CCRF-CEM
  IC50: 11.6 µg/mL (≈ 38.1 µM)
[1]
  inhibition in vivo at 300 mg/kg: 91%

## COc1ccc(S(=O)(=O)NC(=O)Nc2ccc(Cl)cc2)cc1OC
CCRF-CEM
  IC50: > 20 µg/mL
[1]
  inhibition in vivo at 300 mg/kg: 43%

## O=C(NCCc1ccccc1)NS(=O)(=O)c1ccc2c(c1)CCC2
CCRF-CEM
  IC50: > 20 µg/mL
[1]
  inhibition in vivo at 300 mg/kg: 0%

## Cc1ccc(S(=O)(=O)NC(=O)Nc2nc(Cl)cc(Cl)n2)cc1
CCRF-CEM
  IC50: > 20 µg/mL
[1]
  inhibition in vivo at 300 mg/kg: 0%

## CC(C)c1ccc(S(=O)(=O)NC(=O)Nc2ccc(Cl)cc2)cc1
CCRF-CEM
  IC50: 8.7 µg/mL (≈ 24.7 µM)
[1]
  inhibition in vivo at 300 mg/kg: 65%

## Cc1ccc(S(=O)(=O)NC(=O)Nc2ccc3c(c2)OCO3)cc1
CCRF-CEM
  IC50: > 20 µg/mL
[1]
  inhibition in vivo at 300 mg/kg: 54%

## O=C(Nc1ccc(F)cc1)NS(=O)(=O)c1ccc2c(c1)CCC2
CCRF-CEM
  IC50: > 20 µg/mL
[1]
  inhibition in vivo at 300 mg/kg: 39%

## Cc1ccc(S(=O)(=O)NC(=O)Nc2nncs2)cc1
CCRF-CEM
  IC50: > 20 µg/mL
[1]
  inhibition in vivo at 300 mg/kg: 16%

## Cc1ccc(S(=O)(=O)NC(=O)Nc2ccc(C#N)cc2)cc1
CCRF-CEM
  IC50: > 20 µg/mL
[1]
  inhibition in vivo at 300 mg/kg: 31%

## COc1cc(Cl)c(Cl)cc1NC(=O)NS(=O)(=O)c1ccc(C)cc1
CCRF-CEM
  IC50: > 20 µg/mL
[1]
  inhibition in vivo at 300 mg/kg: 3%

## Cc1ccc(S(=O)(=O)NC(=O)NC2CCC(O)CC2)cc1 (centres undefined)
CCRF-CEM
  IC50: > 20 µg/mL
[1]
  inhibition in vivo at 300 mg/kg: 0%

## CC(=O)Nc1ccc(S(=O)(=O)NC(=O)Nc2ccc(C(F)(F)F)cc2)cc1
CCRF-CEM
  IC50: > 20 µg/mL
[1]
  inhibition in vivo at 300 mg/kg: 22%

## Cc1ccc(S(=O)(=O)NC(=O)Nc2ccc(Br)c(C)c2)cc1
CCRF-CEM
  IC50: 7.3 µg/mL (≈ 19 µM)
[1]
  inhibition in vivo at 300 mg/kg: 81%

## CC(=O)c1ccc(S(=O)(=O)NC(=O)Nc2ccc(Cl)cc2)cc1
CCRF-CEM
  IC50: 16.9 µg/mL (≈ 47.9 µM)
[1]
  inhibition in vivo at 300 mg/kg: 55%

## CCOc1cccc(NC(=O)NS(=O)(=O)c2ccc(C)cc2)c1
CCRF-CEM
  IC50: > 20 µg/mL
[1]
  inhibition in vivo at 300 mg/kg: 6%

## Cc1ccc(S(=O)(=O)NC(=O)Nc2ccc(Cl)cc2C(F)(F)F)cc1
CCRF-CEM
  IC50: > 20 µg/mL
[1]
  inhibition in vivo at 300 mg/kg: 24%

## CCOc1ccc(S(=O)(=O)NC(=O)Nc2ccc(Cl)cc2)cc1
CCRF-CEM
  IC50: 13 µg/mL (≈ 36.6 µM)
[1]
  inhibition in vivo at 300 mg/kg: 100%

## Nc1ccc(S(=O)(=O)NC(=O)Nc2ccc(Cl)cc2)cc1
CCRF-CEM
  IC50: 13.9 µg/mL (≈ 42.7 µM)
[1]
  inhibition in vivo at 300 mg/kg: 43%

## Cc1ccc(S(=O)(=O)NC(=O)Nc2cccc(C)c2)cc1
CCRF-CEM
  IC50: > 20 µg/mL
[1]
  inhibition in vivo at 300 mg/kg: 0%

## Cc1ccc(S(=O)(=O)NC(=O)Nc2ccc3c(c2)C(=O)CC3)cc1
CCRF-CEM
  IC50: > 20 µg/mL
[1]
  inhibition in vivo at 300 mg/kg: 0%

## Cc1ccc(S(=O)(=O)NC(=O)Nc2ccc(S(N)(=O)=O)cc2)cc1
[1]
  inhibition in vivo at 300 mg/kg: 27%

## Cc1ccc(S(=O)(=O)NC(=O)Oc2ccc(Cl)cc2)cc1
CCRF-CEM
  IC50: > 20 µg/mL
[1]
  inhibition in vivo at 300 mg/kg: 43%

## Cc1ccc(S(=O)(=O)NC(=O)Nc2ccccc2C)cc1
CCRF-CEM
  IC50: > 20 µg/mL
[1]
  inhibition in vivo at 300 mg/kg: 32%

## Cc1ccc(S(=O)(=O)NC(=O)Nc2ccc(OCC(F)(F)F)cc2)cc1
CCRF-CEM
  IC50: > 20 µg/mL
[1]
  inhibition in vivo at 300 mg/kg: 30%

## Cc1ccc(S(=O)(=O)NC(=O)Nc2cccc(C)c2C)cc1
[1]
  inhibition in vivo at 300 mg/kg: 8%

## Cc1ccc(S(=O)(=O)NC(=O)Nc2ccc(CC#N)cc2)cc1
CCRF-CEM
  IC50: > 20 µg/mL
[1]
  inhibition in vivo at 300 mg/kg: 10%

## Cc1ccc(S(=O)(=O)NC(=O)NC2CCC(C)CC2)cc1 (centres undefined)
CCRF-CEM
  IC50: > 20 µg/mL
[1]
  inhibition in vivo at 300 mg/kg: 2%

## N#Cc1cccc(S(=O)(=O)NC(=O)Nc2ccc(Cl)cc2)c1
CCRF-CEM
  IC50: 13.1 µg/mL (≈ 39 µM)
[1]
  inhibition in vivo at 300 mg/kg: 19%

## Cc1ccc(S(=O)(=O)NC(=O)Nc2ccccn2)cc1
CCRF-CEM
  IC50: > 20 µg/mL
[1]
  inhibition in vivo at 300 mg/kg: 2%

## O=C(NCCc1ccccc1)NS(=O)(=O)c1ccc2ccccc2c1
CCRF-CEM
  IC50: > 20 µg/mL
[1]
  inhibition in vivo at 300 mg/kg: 0%

## Cc1ccc(S(=O)(=O)NC(=O)NCc2ccccc2)cc1
CCRF-CEM
  IC50: > 20 µg/mL
[1]
  inhibition in vivo at 300 mg/kg: 0%

## Cc1ccc(S(=O)(=O)NC(=O)Nc2ccc(F)c(F)c2)cc1
CCRF-CEM
  IC50: 12.8 µg/mL (≈ 39.2 µM)
[1]
  inhibition in vivo at 300 mg/kg: 60%

## O=C(Nc1ccc(Cl)c(Cl)c1)NS(=O)(=O)c1ccc2c(c1)CCC2
CCRF-CEM
  IC50: 9.1 µg/mL (≈ 23.6 µM)
[1]
  inhibition in vivo at 300 mg/kg: 97%

## Cc1ccc(S(=O)(=O)NC(=O)Nc2ccc([N+](=O)[O-])cc2)cc1
CCRF-CEM
  IC50: 7.4 µg/mL (≈ 22.1 µM)
[1]
  inhibition in vivo at 300 mg/kg: 34%

## CSc1ccc(NC(=O)NS(=O)(=O)c2ccc(C)cc2)cc1
CCRF-CEM
  IC50: > 20 µg/mL
[1]
  inhibition in vivo at 300 mg/kg: 17%

## Cc1ccc(S(=O)(=O)NC(=O)Nc2ccc3c(c2)CCC3)cc1
CCRF-CEM
  IC50: 15.7 µg/mL (≈ 47.5 µM)
[1]
  inhibition in vivo at 300 mg/kg: 5%

## Cc1ccc(S(=O)(=O)NC(=O)N(C)c2ccc(Cl)cc2)cc1
CCRF-CEM
  IC50: > 20 µg/mL
[1]
  inhibition in vivo at 300 mg/kg: 30%

## CC(C)(C)c1ccc(S(=O)(=O)NC(=O)Nc2ccc(Cl)cc2)cc1
CCRF-CEM
  IC50: 13.5 µg/mL (≈ 36.8 µM)
[1]
  inhibition in vivo at 300 mg/kg: 84%

## Cc1ccc(S(=O)(=O)NC(=O)Nc2cccnc2)cc1
CCRF-CEM
  IC50: > 20 µg/mL
[1]
  inhibition in vivo at 300 mg/kg: 1%

## Cc1ccc(S(=O)(=O)NC(=O)Nc2cc(F)cc(F)c2)cc1
CCRF-CEM
  IC50: > 20 µg/mL
[1]
  inhibition in vivo at 300 mg/kg: 52%

## Cc1ccc(S(=O)(=O)NC(=O)Nc2cnccn2)cc1
CCRF-CEM
  IC50: > 20 µg/mL
[1]
  inhibition in vivo at 300 mg/kg: 0%

## Cc1ccc(S(=O)(=O)NC(=O)NCc2ccc(Cl)cc2)cc1
CCRF-CEM
  IC50: > 20 µg/mL
[1]
  inhibition in vivo at 300 mg/kg: 14%

## Cc1ccc(S(=O)(=O)NC(=O)Nc2cc(C(C)(C)C)on2)cc1
[1]
  inhibition in vivo at 300 mg/kg: 5%

## Cc1ccc(S(=O)(=O)NC(=O)Nc2ccc(OC(F)F)cc2)cc1
[1]
  inhibition in vivo at 300 mg/kg: 15%
